The values below come from patent publication US20260174724A1, “COMPOSITION FOR PREVENTING AND/OR IMPROVING BRAIN DYSFUNCTION” (THE INSTITUTE OF BIOACTIVE PEPTIDES, priority 2024, published 2026).

A short description of series [1]: Bioavailability experiment: DHM concentration in plasma after gavage, LC-MS/MS. In kind it is in vivo. Particulars: male SD rats, DHM 100 mg/kg. As to the method: Experimental subject grouping: 24 male SD rats, weighing between 200-220 g, were randomly divided into four groups.
• Group A (control group): DHM was administered alone at a dose of 100 mg/kg. • Group B: DHM (100 mg/kg) was co-administered with L-theanine (10 mg/kg). • Group C: DHM (100 mg/kg) was co-administered with taurine (10 mg/kg). • Group D: DHM (100 mg/kg), L-theanine (10 mg/kg), and taurine (10 mg/kg) were co-administered.
The drug was mixed with 3 mL of 0.5% CMC-Na solution and administered by gavage.
At 0.1, 0.5, 1, 1.5, 2, 2.5, 3, 4, 6, 8, and 12 h after administration, 200 μL of blood samples were collected through the tail vein and placed in heparinized EP tubes.
The blood samples were centrifuged at 5000 rpm for 15 min at 4° C., and plasma was collected and stored at −20° C.
Before analysis, 30 μL of plasma sample was taken, 30 μL of internal standard (rutin) solution and 140 μL of 1% formic acid-acetonitrile solution were added, vortex oscillated for 1 min, centrifuged at 12000 rpm for 5 min, and 150 μL of supernatant was taken for LC-MS/MS analysis. Analysis purpose:
The concentration of DHM in plasma was determined at different time points to evaluate the effect of the composition on the bioavailability of DHM.

The conditions of series [2]: simulated gi fluid, 4 h, 1 mg/mL.
Description: • Solutions A-D and A1-D1 were prepared according to the following components and concentrations, with a volume of 10 mL each. The mixed solution was placed in a water bath at 37° C., and the content of the remaining DHM was determined by HPLC at different time intervals. • Solution A: SIF+DHM (1 mg/mL); • Solution B: SIF+DHM (1 mg/mL)+taurine (0.3 mg/mL) • Solution C: SIF+DHM (1 mg/mL)+L-theanine (0.4 mg/mL); • Solution D: SIF+DHM (1 mg/mL)+taurine (0.1 mg/mL)+L-theanine (0.1 mg/mL) • Solution A1: SIF+DHM (1 mg/mL)+Fe^3+ (50 μmol/L); • Solution B1: SIF+DHM (1 mg/mL)+taurine (0.3 mg/mL)+Fe^3+ (50 μmol/L); • Solution C1: SIF+DHM (1 mg/mL)+L-theanine (0.4 mg/mL)+Fe^3+ (50 μmol/L); • Solution D1: SIF+DHM (1 mg/mL)+taurine (0.1 mg/mL)+L-theanine (0.1 mg/mL)+Fe^3+ (50 μmol/L).
In series [3] the test system is intracerebral hemorrhage (ICH) model of C57BL/6N mice. Kind of series: Cerebral hematoma experiment: collagenase-induced ICH model, hematoma volume by ImageJ. In kind it is in vivo. Particulars: Day 1 after modeling; gavage 7 days before collagenase; FIG. 3. The text has this:
This experiment aims to evaluate the effect of different compositions on the hematoma volume in the intracerebral hemorrhage (ICH) model of C57BL/6N mice. A total of 72 male C57BL/6N mice, aged 8-10 weeks, were randomly divided into 6 groups and treated with gavage for 7 days. Subsequently, except for the sham operation group (CON), the remaining groups were induced the ICH model by collagenase method. […]
On the 1st and 3rd day after modeling, 6 mice were randomly selected from each group for decapitation and brain sampling. The brain tissue was cut into slices on ice, and the hematoma volume was calculated using ImageJ software.

What is called AUC(0-inf) is the area under the concentration-time curve extrapolated to infinity. Read a high AUC(0-inf) as high exposure. What is called AUC(0-t) is the area under the concentration-time curve up to a stated or last time point. High values mean more exposure, low ones less exposure. What is called Cmax is the highest concentration seen after dosing. Broadly, the Tmax is the time at which the peak concentration occurs. The half-life is the time in which the quantity being followed falls by half. In series [1], `O=C1c2c(O)cc(O)cc2O[C@H](c2cc(O)c(O)c(O)c2)[C@H]1O` [DHM, dihydromyricetin] showed a CL of 517 ± 62.4 L/h/kg. Also, in series [1] (rat, po), the total exposure AUC(0-inf) is 194 ng·h/mL, the area under the curve AUC(0-t) was 172 ng·h/mL, the highest level (Cmax) was 118 ± 13.7 ng/mL and the time to peak (Tmax) was 0.83 ± 1.12 h. The half-life in series [1] (rat, po) is 1.91 ± 0.67 h. Further, the “remaining amount of DHM” value in series [2] was “below 50%”.
As for `O=C1c2c(O)cc(O)cc2O[C@H](c2cc(O)c(O)c(O)c2)[C@H]1O` [G1 group, dihydromyricetin], the “hematoma volume compared with the MOD group” value in series [3] was “decreased”.
